In article PMC5361891 (Journal of chemical information and modeling, 2017):

Legend:
human 5-HT7bR = human 5-HT7bR (Homo sapiens, UniProt P34969); experiment: Radioligand binding assay, [3H]-5-CT displacement; details: read-out: Ki 5-HT7; HEK293 cell membranes, 0.6 nM [3H]-5-CT, 37 °C 1 h
human 5-HT6R = human 5-HT6R (Homo sapiens, UniProt P50406); experiment: Radioligand binding assay, [3H]-LSD displacement; details: read-out: Ki 5-HT6; HEK293 cell membranes, 2 nM [3H]-LSD, 37 °C 1 h
human 5-HT2AR = human 5-HT2AR (Homo sapiens, UniProt P28223); experiment: Radioligand binding assay, [3H]-Ketanserin displacement; details: read-out: Ki 5-HT2A; HEK293 cell membranes, 1.0 nM [3H]-Ketanserin, 37 °C 1 h
5-HT1AR = details: affinity toward 5-HT1AR; cited from earlier work

human 5-HT7bR, sequence (P34969 1-432 limits assumed): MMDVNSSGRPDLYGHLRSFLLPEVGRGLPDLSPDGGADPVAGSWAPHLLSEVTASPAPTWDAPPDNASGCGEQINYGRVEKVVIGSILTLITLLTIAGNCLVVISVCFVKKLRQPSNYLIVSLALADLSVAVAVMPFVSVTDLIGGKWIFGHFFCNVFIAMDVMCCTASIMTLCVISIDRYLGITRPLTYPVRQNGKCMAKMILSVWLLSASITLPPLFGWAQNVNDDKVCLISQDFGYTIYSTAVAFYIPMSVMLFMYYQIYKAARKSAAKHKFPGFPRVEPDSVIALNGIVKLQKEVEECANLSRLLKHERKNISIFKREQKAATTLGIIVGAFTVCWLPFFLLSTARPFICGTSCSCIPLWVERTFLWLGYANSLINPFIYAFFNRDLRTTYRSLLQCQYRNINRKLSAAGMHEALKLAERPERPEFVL
human 5-HT6R, sequence (P50406 whole entry): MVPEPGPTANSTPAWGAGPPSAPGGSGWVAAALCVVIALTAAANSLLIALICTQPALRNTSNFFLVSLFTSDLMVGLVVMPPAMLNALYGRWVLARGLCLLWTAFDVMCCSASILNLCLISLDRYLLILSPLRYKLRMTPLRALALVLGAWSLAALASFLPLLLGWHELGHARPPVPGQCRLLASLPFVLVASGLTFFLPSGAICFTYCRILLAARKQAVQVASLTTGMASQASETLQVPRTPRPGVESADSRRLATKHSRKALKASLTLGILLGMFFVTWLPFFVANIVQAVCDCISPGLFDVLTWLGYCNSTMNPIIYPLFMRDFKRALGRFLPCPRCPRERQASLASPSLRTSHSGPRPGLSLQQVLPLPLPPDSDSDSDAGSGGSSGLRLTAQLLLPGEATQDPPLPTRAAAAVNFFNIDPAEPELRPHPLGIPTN
human 5-HT2AR, sequence (P28223 whole entry): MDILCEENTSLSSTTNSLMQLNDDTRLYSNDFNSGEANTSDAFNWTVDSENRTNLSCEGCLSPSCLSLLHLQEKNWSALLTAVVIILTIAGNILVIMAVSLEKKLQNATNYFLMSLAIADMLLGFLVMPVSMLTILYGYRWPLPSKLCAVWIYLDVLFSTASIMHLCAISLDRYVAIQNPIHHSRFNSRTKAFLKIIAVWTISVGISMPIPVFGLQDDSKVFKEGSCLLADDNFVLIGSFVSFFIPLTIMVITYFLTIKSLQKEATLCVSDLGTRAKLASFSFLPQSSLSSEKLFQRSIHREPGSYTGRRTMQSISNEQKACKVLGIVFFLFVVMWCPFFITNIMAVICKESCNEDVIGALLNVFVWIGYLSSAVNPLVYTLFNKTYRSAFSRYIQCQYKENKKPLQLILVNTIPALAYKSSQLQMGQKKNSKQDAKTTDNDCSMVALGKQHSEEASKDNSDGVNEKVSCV

| SMILES | Ki (human 5-HT7bR) | Ki (human 5-HT6R) | Ki (human 5-HT2AR) | Ki (5-HT1AR) |
| --- | --- | --- | --- | --- |
| COC(=O)c1ccc(C2c3c(-c4ccccc4O)n[nH]c3C(=O)N2Cc2ccncc2)cc1 (stereo not shown) [D174-0581] | 6.48 µM | 13.5 µM | 3.75 µM | – |
| COc1ccccc1N1CCN(CCCCNC(=O)C23CC4CC(C2)C(C4)C3)CC1 [NBUMP, 4-[4-(1-noradamantanecarboxamido)butyl]-1-(2-methoxyphenyl)piperazine] | – | – | – | 0.0001 µM |
